Results reported in patent US5053416A, “Derivatives of 1,2,5,6-tetrahydropyridine substituted by a thiazolyl or oxazolyl radical, their use as medicaments and compositions containing them” (Roussel Uclaf, priority 1988, dated 1991).
Where two headings read alike, the source gives them in different places.

Experiments:
[1] = test system: isolated ileum of a guinea-pig; test: Test on the isolated ileum of a guinea-pig (contraction, agonist activity); conditions: Cavia porcellus, read-out: pD2 (converted)
Protocol: Fragments of the ileum of guinea-pigs killed by decapitation are removed. […] The contractions caused by the products are recorded using a sensor connected to a polygraph. The products under test are added, at concentrations comprised between 1.10^-3 M and 1.10^-8 M/l.
The products presenting a contracting effect are tested vis-a-vis atropine and hexamethonium to establish if the activity is of "muscarinic" or "nicotinic" type.
The possible antagonist activity of the products is tested vis-a-vis acetylcholine.
The agonist activity is expressed in pD2 (negative logarithm of the dose which produces 50% of the maximum effect).

[2] = test system: male mice (CD1 Charles Rivers); test: Hypothermic activity (rectal body temperature); format: in vivo; conditions: Mus musculus; for ED (-1 C): read-out: Effective dose (-1° C.) O.R.; for ED (1 C fall in body temperature): sc, read-out: Effective dose (-1° C.) SC.R.
Protocol: The test is carried out on male mice (CD1 Charles Rivers) weighing 25 to 30 g, without food for 6 hours.
The body temperature is noted by means of a thermocouple placed about 1.5 cm inside the rectum and connected to an electric temperature recorder.
The products are administered by oral or sub-cutaneous route and the temperatures are noted at 0 and 30 minutes, one hour, 2 hours and 2 hours 30 minutes after treatment.
The degree of hypothermia is evaluated as the difference between the treated animals and the controls and the dose necessary to reduce the body temperature by 1° C. is determined.

[3] = test system: male mice (CD1 Charles Rivers); test: Diarrhoeic activity, oral; conditions: for ED50: Mus musculus, po, read-out: DE50
Protocol: The test is carried out on male mice (CD1 Charles Rivers) weighing 25 to 30 g, without food for 6 hours. The product at 5% in methocel is administered by oral route, by means of an oesophagus probe.
Control animals receive only the excipient.
The sheets of absorbent paper are changed after each observation.
1: slightly soft faeces with or without moist circle,
2: slightly soft faeces with presence of a well-defined moist circle,
3: soft faeces with presence of a large moist circle,
4: faeces without consistency with presence of a very large moist circle.

in vivo = conditions: mouse, male mice, oral route, mortality during 7 days following treatment
Protocol: The test is carried out on male mice (CD1 Charles Rivers) of 22 to 24 g, without food for 16 hours. […] The mortality is noted during the 7 days following treatment.

[4] = negative logarithm of the dose which produces 50% of the maximum effect, Tyrode's solution at 37° C.
[5] = sub-cutaneous route, dose necessary to reduce the body temperature by 1° C.
[6] = oral route, dose necessary to reduce the body temperature by 1° C.

Structure (SMILES) | EC50 [1] [nM] | ED (-1 C) ([2]; po) [mg/kg] | ED (1 C fall in body temperature) [2] [mg/kg] | DE50 ([3]; male mice, oral route, dose which causes diarrhoea in 50% of the animals) [mg/kg] | LD50 at 168 h (in vivo) [mg/kg] | EC50 [1, 4] [nM] | ED (1 C fall in body temperature) [2, 5] [mg/kg] | ED (-1 C) [2, 6] [mg/kg] | ED50 [3] [mg/kg]
COC(=O)C1=CCCN(C)C1 [Aerocoline, HBr, reference compound] | 331 | 194 | 3 | 35 |  |  |  |  | 
Cc1coc(C2=CCCNC2)n1.Cl [Example 2, 3-(4-methyloxazol-2-yl)-1,2,5,6-tetrahydropyridine hydrochloride] |  |  |  |  | 125 | 1070 | 1.7 | 2.6 | 3
C1=C(c2ncco2)CNCC1.Cl [Example 6, 3-(oxazol-2-yl)-1,2,5,6-tetrahydropyridine hydrochloride] |  |  |  |  | 200 | 1950 | 3.2 | 3.2 | 15
Cc1cnc(C2=CCCNC2)o1.Cl [Example 8, 3-(5-methyloxazol-2-yl)-1,2,5,6-tetrahydropyridine hydrochloride] |  |  |  |  | 500 | 5890 | 25 | 24 | 
ON1CCC=C(c2ncco2)C1 [Example 10, 1-hydroxy-3-(oxazol-2-yl)-1,2,5,6-tetrahydropyridine] |  |  |  |  | 300 | > 100000 | 4.1 | 4.2 | 10
